Measurements taken from patent US20060009425A1, “Oral formulations of paricalcitol” (priority 2004, published 2006).

Legend:
Format in all cases: in vivo, human
[1] = Phase 3 TIW study, safety (Example 7)
Protocol: Safety: Safety was assessed through an evaluation of clinically meaningful hypercalcemia (2 consecutive calcium results >10.5 mg/dL). Additionally, safety was assessed by the incidence of adverse events, the change from baseline in chemistry, hematology and urinalysis laboratory variables, the change from baseline in subject vital signs, and progressive changes in renal function observed via changes in eGFR.
All randomized subjects who received at least 1 dose of study drug were used in safety analyses. The primary safety analysis was a comparison between the paricalcitol and placebo treatment groups of the proportion of subjects achieving clinically meaningful hypercalcemia (2 consecutive calcium measurements >10.5 mg/dL). This comparison was performed using a Fisher's exact test. Secondary safety analyses were performed comparing changes/percent changes from baseline between the paricalcitol and placebo treatment groups using a one-way ANOVA with treatment group as the factor for the following variables: hematology, complete chemistry, and urinalysis variables; 24-hour urine collections, eGFR, urinary calcium/creatinine ratio, cardiovascular markers, and vital signs. Secondary safety analyses also consisted of an analysis of “treatment-emergent” adverse events (i.e., adverse events with an onset date on or after the date the first dose of study drug was taken). Adverse events were summarized by body system and COSTART term according to the COSTART V adverse event-coding dictionary. Comparisons of the percentage of subjects experiencing an adverse event between the Oral paricalcitol and placebo treatment groups were performed using a Fisher's exact test.

[2] = test system: serum parathyroid hormone (PTH) levels; assay: Phase 3 placebo-controlled TIW study, iPTH reduction (Example 6)
From the text: Methodology: This was a Phase 3, prospective, randomized, placebo-controlled, double-blind, 24-week Treatment Phase, multi-center study in CKD (Stages 3 and 4) subjects with elevated PTH levels (≧150 pg/mL). Subjects were randomized in an equal ratio (1:1) to 1 of 2 treatment groups: Paricalcitol Capsule (Group 1) and placebo (Group 2). Potential subjects underwent procedures to determine their baseline intact PTH (iPTH), calcium, and phosphorus levels for eligibility to receive treatment.
(§1) The study was performed in 4 parts: a Screening Visit, a Pre-Treatment Phase, a Treatment Phase, and a Follow-Up Phase. At the Screening Visit, subjects reviewed and signed the informed consent form prior to the conduct of any study-specific screening procedures. A spot urine sample was used to calculate calcium/creatinine ratio. A blood sample was drawn for iPTH, blood urea nitrogen (BUN), albumin and serum creatinine levels. […] The serum creatinine, BUN, and albumin values were used to calculate the subject's estimated glomerular filtration rate (eGFR) using a formula derived from the “Modification of Diet in Renal Disease” (MDRD) study. Subjects with a calculated eGFR of 15 to 60 mL/min were eligible to undergo Pre-Treatment Phase procedures. The Pre-Treatment Phase was 1 to 4 weeks. During this phase, subjects had 2 scheduled office visits. The office visits could have occurred at any time over a 4-week period but must have been at least 1 day apart. During these visits, subjects were to meet laboratory criteria regarding serum iPTH, calcium, and phosphorus levels. If the subject was unable to meet these criteria, he or she may have been re-screened once after 4 weeks. […] Subjects who satisfied inclusion and exclusion criteria after a minimum of 1 week in the Pre-Treatment Phase were eligible to enter the Treatment Phase. During the Treatment Phase, subjects were to self-administer study drug 3 times weekly, on Monday, Wednesday and Friday, for a total of 24 weeks. The initial dose was 2 or 4 mcg (depending on baseline iPTH levels). Procedures to be performed during the Treatment Phase included vital signs, chemistry and hematology, urinary pyridinoline, urinary deoxypyridinoline, serum bone-specific alkaline phosphatase, serum osteocalcin, urinalysis, spot urine for calcium/creatinine ratio, and recording of adverse events and concurrent medications. Serum iPTH, calcium, phosphorus, and albumin were measured every 2 weeks. Dose adjustments were to be made according to these chemistry results for iPTH, calcium, and phosphorus. Doses may have been increased in 2 mcg increments every 4 weeks. Dose reductions were to occur according to a protocol-specified algorithm. However, dosing could have been adjusted any time if, in the judgment of the Investigator, a risk to subject safety existed.
Efficacy: The primary efficacy endpoint was the achievement of 2 consecutive >30% decreases from baseline iPTH levels.
The secondary efficacy analyses include change and percent change from baseline analyses in iPTH and change from baseline analyses in biochemical bone activity markers.
The Intent-To-Treat population (Full Analysis Set) was defined as all randomized subjects with a baseline iPTH and at least 2 on-treatment iPTH measurements. This population was used in the primary efficacy analysis.

[3] = test system: biochemical bone activity markers; assay: Phase 3 TIW study, biochemical bone activity markers (Table C); conditions: CKD Stage 3 and 4, TIW treated subjects (Table C)
From the text: Serum bone-specific alkaline phosphate and serum osteocalcin are considered more sensitive bone markers to evaluate degree of bone remodeling than urinary bone marker. […] These subjects received treatment with the oral formulations of the present invention or a placebo. The bone markers examined in these subjects were serum osteocalcin, serum bone-specific alkaline phosphatase, urinary pyridinoline, and deoxypyridinoline. If more than 1 biochemical bone activity marker measurement existed for a subject on a particular day, the higher measurement was considered to be that subject's biochemical bone activity marker measurement for that day. […] The Final Visit measurement was defined as the last biochemical bone activity marker measurement following the first dose of study drug.
The Week 11 Visit measurement was defined as the biochemical bone activity marker measurement on the day closest to the Week 11 scheduled visit, for which the possible measurements to choose from were those collected within 64 and 77 days following the first dose of study drug.
Changes from baseline to Week 11 Visit and to Final Visit in biochemical bone activity markers were compared between oral paricalcitol and placebo using an ANOVA with treatment as the factor on the combined Phase 3 all treated subject population (Table F). Also, the changes from baseline to Week 11 Visit and to Final Visit were compared between oral paricalcitol and placebo using an ANCOVA with baseline as the second factor on the combined Phase 3 all treated subject population (Table G).
as §1

C[C@H](/C=C/[C@H](C)C(C)(C)O)[C@H]1CC[C@H]2/C(=C/C=C3C[C@@H](O)C[C@H](O)C3)CCC[C@]12C [Paricalcitol, 19-nor-1α,3β,25-trihydroxy-9,10-secoergosta-5(Z); 7(E),22(E)-triene]
safety and tolerability ([1]; CKD (Stages 3 and 4) subjects): safe and well tolerated | adverse events considered not related to study drug administration ([1]; TIW, 24 weeks): 81% | adverse events mild or moderate in severity ([1]; TIW, 24 weeks): 96% | subjects with treatment-emergent adverse events ([1]; TIW, 24 weeks): 76% | mean calcium values, range over scheduled visits ([1]; Treatment Phase): 9.36 to 9.62 mg/dL | subjects reporting serious adverse events ([1]; Treatment and Follow-Up Phases): 6 subjects | adverse event incidence: diarrhea ([1]; in vivo): 9% | adverse event incidence: dizziness ([1]; in vivo): 12% | adverse event incidence: edema ([1]; in vivo): 9% | adverse event incidence: hypotension ([1]; in vivo): 12% | adverse event incidence: uremia ([1]; in vivo): 12% | serum calcium, mean change from baseline to Last On-Treatment Visit ([1]; in vivo): 0.19 mg/dL | subjects terminated prematurely due to adverse events ([1]; in vivo): 1 subjects | subjects who developed clinically meaningful hypercalcemia (at least 2 consecutive calcium values >10.5 mg/dL) ([1]; in vivo): 1/33 | eGFR, mean percent change from baseline to Final Visit ([1]; subjects who completed 24 weeks of treatment): −16.61% | subjects with 4 consecutive ≧30% decreases from baseline in iPTH ([2]; 26/36, exploratory analysis): 72% | subjects with 2 consecutive >30% decreases from baseline in iPTH ([2]; 33/36, TIW, 24 weeks, CKD Stages 3 and 4): 92% | 30% mean reduction in iPTH occurred by ([2]; TIW): ≤ 9 Week | mean change from baseline in iPTH at the Final Visit ([2]; TIW, 24 weeks): -58.1 pg/mL | mean change from baseline in iPTH at the Last On-Treatment Visit ([2]; TIW, 24 weeks): -95.7 pg/mL | percent decrease in iPTH at the Final Visit ([2]; TIW, 24 weeks): 19.2% | percent decrease in iPTH at the Last On-Treatment Visit ([2]; TIW, 24 weeks): 33.0% | maximum decrease from baseline in iPTH ([2]; observed at Week 19): −46.0% | Serum Bone-Specific Alkaline Phosphatase, Change from Baseline (SE) to Final [3]: −7.922 (1.3520) mcg/L | Serum Bone-Specific Alkaline Phosphatase, Change from Baseline (SE) to Week 11 [3]: −4.673 (1.2590) mcg/L | Serum Osteocalcin, Change from Baseline (SE) to Final [3]: −19.00 (4.381) ng/mL | Serum Osteocalcin, Change from Baseline (SE) to Week 11 [3]: −4.23 (4.386) ng/mL | Urinary Deoxypyridinoline, Change from Baseline (SE) to Final [3]: −0.0084 (0.00375) nmol/mg Creat | Urinary Deoxypyridinoline, Change from Baseline (SE) to Week 11 [3]: −0.0116 (0.00354) nmol/mg Creat | Urinary Pyridinoline, Change from Baseline (SE) to Final [3]: −4.06 (2.276) nmol/mmol Creat | Urinary Pyridinoline, Change from Baseline (SE) to Week 11 [3]: −5.46 (2.545) nmol/mmol Creat
